These results are taken from US11554048B2, “System and method for treating meibomian gland dysfunction” (The Schepens Eye Research Institute, Inc., priority 2018, dated 2023).

The subject of the test is iHMGEC. The test is described as follows: Terminal differentiation of iHMGECs under low oxygen combined with phospholipidosis-inducing drug. Particulars: low oxygen levels combined with drug exposure, 10 μg/ml. In kind it is cell-based, human. The text has this:
This hypoxic effect is associated with a significant rise in the number and size of lysosomes, as well as increased DNase II activity and decreased Lamp-1 expression. These latter changes are consistent with heightened terminal differentiation and holocrine secretion.

As for `CC[C@H]1OC(=O)[C@H](C)[C@@H](O[C@H]2C[C@@](C)(OC)[C@@H](O)[C@H](C)O2)[C@H](C)[C@@H](O[C@@H]2O[C@H](C)C[C@H](N(C)C)[C@H]2O)[C@](C)(O)C[C@@H](C)CN(C)[C@H](C)[C@@H](O)[C@]1(C)O` [azithromycin], the “hypoxic influence on terminal differentiation” value is “further enhanced”.
